Experimental data reported in patent US7166622B2, “Substituted phenylsulfonamide inhibitors of beta amyloid production” (Wyeth, priority 2002, dated 2007).

Key:
CHO-K1 cells = assay: Toxicity in RRA (loss of luciferase signal); settings: Conc 10 μg/ml; toxicity = loss of signal (<0.75 fold increase)
Description: The beta amyloid inhibitory activity of the compounds of the present invention was determined using the Repressor Release Assay (RRA).
“Fold Increase” refers to the amount of luciferase activity (measured in relative light units) over diluent control. “SEM” refers to the standard error of the mean for fold increase.

beta amyloid production = assay: Repressor Release Assay (RRA); format: cell-based; settings: Conc 10 μg/ml; for fold induction at 10 µg/mL / APPI Fold Increase: luciferase activity over diluent control; for fold induction at 10 µg/mL: read-out: APPI Fold Increase; for APPI % of Example #98: relative to Example 98
Method in brief: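 Read-out is luciferase luminescence (RLU) after 36-48 h duplicate compound exposure of transfected CHO-K1 cells. These cells carry transiently introduced APP-lacI and pRSVO-luc DNA. Diluent control was 25 mM Hepes/1% DMSO; toxicity recorded as binary score (1 non-toxic, 0 toxic).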

Row | SMILES | (%)APPI Toxicity (CHO-K1 cells) | fold induction at 10 µg/mL (beta amyloid production) | APPI Fold Increase (beta amyloid production) [fold] | APPI % of Example #98 (beta amyloid production) [%]
1 | CCCCC(O)[C@@H](NS(=O)(=O)c1ccc(Cl)cc1)[C@@H](C)CC (stereo partly drawn) [Example 169, 4-chloro-N-{(1S)-2-hydroxy-1-[(1S)-1-methylpropyl]hexyl}benzenesulfonamide] | 1 (1=non-toxic) | 2.85 |  | 
2 | CC[C@H](C)[C@H](NS(=O)(=O)c1ccc(Cl)cc1)C(O)C(C)C (stereo partly drawn) [Example 170, 4-chloro-N-{(1S)-2-hydroxy-3-methyl-1-[(1S)-1-methylpropyl]butyl}benzenesulfonamide] | 1 (1=non-toxic) | 1.92 |  | 
3 | CC[C@H](C)[C@H](NS(=O)(=O)c1ccc(Cl)cc1)C(O)c1ccccc1C (stereo partly drawn) [Example 171, 4-chloro-N-{(1S,2S)-1-[hydroxy(2-methylphenyl)methyl]-2-methylbutyl}benzenesulfonamide] | 1 (1=non-toxic) | 1.54 |  | 
4 | CC[C@H](C)[C@H](NS(=O)(=O)c1ccc(Cl)cc1)C(O)C(C)(C)C (stereo partly drawn) [Example 172, 4-chloro-N-{(1S)-2-hydroxy-3,3-dimethyl-1-[(1S)-1-methylpropyl]butyl}benzenesulfonamide] | 1 (1=non-toxic) | 2.51 |  | 
5 | CC[C@H](C)[C@H](NS(=O)(=O)c1ccc(Cl)cc1)C(O)CC(C)C (stereo partly drawn) [Example 173, 4-chloro-N-{(1S)-2-hydroxy-4-methyl-1-[(1S)-1-methylpropyl]pentyl}benzenesulfonamide] | 1 (1=non-toxic) | 2.56 |  | 
6 | C=CC(O)[C@@H](NS(=O)(=O)c1ccc(Cl)cc1)[C@@H](C)CC (stereo partly drawn) [Example 174, 4-chloro-N-{(1S)-2-hydroxy-1-[(1S)-1-methylpropyl]-3-butenyl}benzenesulfonamide] | 1 (1=non-toxic) | 2.1 |  | 
7 | CCC(O)[C@@H](NS(=O)(=O)c1ccc(Cl)cc1)[C@@H](C)CC (stereo partly drawn) [Example 176, 4-chloro-N-{(1S)-2-hydroxy-1-[(1S)-1-methylpropyl]butyl}benzenesulfonamide] | 1 (1=non-toxic) | 2.63 |  | 
8 | CC[C@H](C)[C@H](NS(=O)(=O)c1ccc(Cl)cc1)C(O)c1ccc(Cl)cc1 (stereo partly drawn) [Example 177, 4-chloro-N-{(1S,2S)-1-[(4-chlorophenyl) (hydroxy)methyl]-2-methylbutyl}benzenesulfonamide] | 1 (1=non-toxic) | 1.95 |  | 
9 | CC[C@H](C)[C@H](NS(=O)(=O)c1ccc(Cl)cc1)C(O)c1ccc(OC)cc1 (stereo partly drawn) [Example 178, 4-chloro-N-{(1S,2S)-1-[hydroxy(4-methoxyphenyl)methyl]-2-methylbutyl}benzenesulfonamide] | 1 (1=non-toxic) | 1.68 |  | 
10 | CC[C@H](C)[C@H](NS(=O)(=O)c1ccc(Cl)cc1)C(O)CCC1OCCCO1 (stereo partly drawn) [Example 179, 4-chloro-N-{(1S)-4-(1,3-dioxan-2-yl)-2-hydroxy-1-[(1S)-1-methylpropyl]butyl} benzenesulfonamide] | 1 (1=non-toxic) |  | 1.63 | 79.4
11 | C=CCCC(O)[C@@H](NS(=O)(=O)c1ccc(Cl)cc1)[C@@H](C)CC (stereo partly drawn) [Example 180, 4-chloro-N-{(1S)-2-hydroxy-1-[(1S)-1-methylpropyl]-5-hexenyl}benzenesulfonamide] | 1 (1=non-toxic) | 1.69 |  | 
12 | CC#CC(O)[C@@H](NS(=O)(=O)c1ccc(Cl)cc1)[C@@H](C)CC (stereo partly drawn) [Example 181, 4-chloro-N-{(1S)-2-hydroxy-1-[(1S)-1-methylpropyl]-3-pentynyl}benzenesulfonamide] | 1 (1=non-toxic) | 1.76 |  | 
13 | CC[C@H](C)[C@H](NS(=O)(=O)c1ccc(Cl)cc1)C(O)c1ccc(SC)cc1 (stereo partly drawn) [Example 182, 4-chloro-N-((1S,2S)-1-{hydroxy[4-(methylsulfanyl)phenyl]methyl}-2-methylbutyl) benzenesulfonamide] | 1 (1=non-toxic) |  | 2.58 | 122.24
14 | CC[C@H](C)[C@H](NS(=O)(=O)c1ccc(Cl)cc1)C(O)c1ccc(N(C)C)cc1 (stereo partly drawn) [Example 183, 4-chloro-N-{(1S,2S)-1-[[4-(dimethylamino)phenyl](hydroxy)methyl]-2-methylbutyl}benzenesulfonamide] | 1 (1=non-toxic) | 4.49 |  | 
15 | CC[C@H](C)[C@H](NS(=O)(=O)c1ccc(Cl)cc1)C(O)c1cccc2ccccc12 (stereo partly drawn) [Example 184, 4-chloro-N-{(1S,2S)-1-[hydroxy(1-naphthyl)methyl]-2-methylbutyl}benzenesulfonamide] | 1 (1=non-toxic) | 1.7 |  | 
16 | CC[C@H](C)[C@H](NS(=O)(=O)c1cccc(Cl)c1)C(C)O (stereo partly drawn) [Example 185, 3-chloro-N-[(1S,2S)-1-(1-hydroxyethyl)-2-methylbutyl]benzenesulfonamide] | 1 (1=non-toxic) | 1.51 |  | 

Row | SMILES | (%)APPI Toxicity (CHO-K1 cells) | fold induction at 10 µg/mL (beta amyloid production) | APPI Fold Increase (beta amyloid production) [fold] | APPI % of Example #98 (beta amyloid production) [%]
17 | CC[C@H](C)[C@H](NS(=O)(=O)c1cccc(Cl)c1)C(O)C1CCCC1 (stereo partly drawn) [Example 186, 3-chloro-N-{(1S,2S)-1-[cyclopentyl(hydroxy)methyl]-2-methylbutyl}benzenesulfonamide] | 1 (1=non-toxic) | 3.86 |  | 
18 | CCCCCCC(O)[C@@H](NS(=O)(=O)c1cccc(Cl)c1)[C@@H](C)CC (stereo partly drawn) [Example 187, 3-chloro-N-{(1S)-2-hydroxy-1-[(1S)-1-methylpropyl]octyl}benzenesulfonamide] | 1 (1=non-toxic) | 9.02 |  | 
19 | CCCCCC(O)[C@@H](NS(=O)(=O)c1cccc(Cl)c1)[C@@H](C)CC (stereo partly drawn) [Example 188, 3-chloro-N-{(1S)-2-hydroxy-1-[(1S)-1-methylpropyl]heptyl}benzenesulfonamide] | 1 (1=non-toxic) | 3.54 |  | 
20 | CCCCC(O)[C@@H](NS(=O)(=O)c1cccc(Cl)c1)[C@@H](C)CC (stereo partly drawn) [Example 189, 3-chloro-N-{(1S)-2-hydroxy-1-[(1S)-1-methylpropyl]hexyl}benzenesulfonamide] | 1 (1=non-toxic) | 1.51 |  | 
21 | CC[C@H](C)[C@H](NS(=O)(=O)c1cccc(Cl)c1)C(O)C(C)C (stereo partly drawn) [Example 190, 3-chloro-N-{(1S)-2-hydroxy-3-methyl-1-[(1S)-1-methylpropyl]butyl}benzenesulfonamide] | 1 (1=non-toxic) | 1.76 |  | 
22 | CC[C@H](C)[C@H](NS(=O)(=O)c1cccc(Cl)c1)C(O)C(C)(C)C (stereo partly drawn) [Example 191, 3-chloro-N-{(1S)-2-hydroxy-3,3-dimethyl-1-[(1S)-1-methylpropyl]butyl}benzenesulfonamide] | 1 (1=non-toxic) | 2.42 |  | 
23 | CC[C@H](C)[C@H](NS(=O)(=O)c1cccc(Cl)c1)C(O)CC(C)C (stereo partly drawn) [Example 192, 3-chloro-N-{(1S)-2-hydroxy-4-methyl-1-[(1S)-1-methylpropyl]pentyl}benzenesulfonamide] | 1 (1=non-toxic) | 2.21 |  | 
24 | C=CC(O)[C@@H](NS(=O)(=O)c1cccc(Cl)c1)[C@@H](C)CC (stereo partly drawn) [Example 193, 3-chloro-N-{(1 S)-2-hydroxy-1-[(1S)-1-methylpropyl]-3-butenyl}benzenesulfonamide] | 1 (1=non-toxic) | 1.78 |  | 
25 | C=CCC(O)[C@@H](NS(=O)(=O)c1cccc(Cl)c1)[C@@H](C)CC (stereo partly drawn) [Example 194, 3-chloro-N-{(1S)-2-hydroxy-1-[(1S)-1-methylpropyl]-4-pentenyl}benzenesulfonamide] | 1 (1=non-toxic) | 3.42 |  | 
26 | CCC(O)[C@@H](NS(=O)(=O)c1cccc(Cl)c1)[C@@H](C)CC (stereo partly drawn) [Example 195, 3-chloro-N-{(1S)-2-hydroxy-1-[(1S)-1-methylpropyl]butyl}benzenesulfonamide] | 1 (1=non-toxic) | 2.16 |  | 
27 | CC[C@H](C)[C@H](NS(=O)(=O)c1cccc(Cl)c1)C(O)c1ccc(Cl)cc1 (stereo partly drawn) [Example 196, 3-chloro-N-{(1S,2S)-1-[(4-chlorophenyl)(hydroxy)methyl]-2-methylbutyl}benzenesulfonamide] | 1 (1=non-toxic) | 1.78 |  | 
28 | CC[C@H](C)[C@H](NS(=O)(=O)c1cccc(Cl)c1)C(O)C=C(C)C (stereo partly drawn) [Example 197, 3-chloro-N-{(1S)-2-hydroxy-4-methyl-1-[(1S)-1-methylpropyl]-3-pentenyl}benzenesulfonamide] | 1 (1=non-toxic) | 1.54 |  | 
29 | CC[C@H](C)[C@H](NS(=O)(=O)c1cccc(Cl)c1)C(O)c1ccc(OC)cc1 (stereo partly drawn) [Example 198, 3-chloro-N-{(1S,2S)-1-[hydroxy(4-methoxyphenyl)methyl]-2-methylbutyl}benzenesulfonamide] | 1 (1=non-toxic) | 1.54 |  | 
30 | CC[C@H](C)[C@H](NS(=O)(=O)c1cccc(Cl)c1)C(O)CCC1OCCCO1 (stereo partly drawn) [Example 199, 3-chloro-N-{(1S)-4-(1,3-dioxan-2-yl)-2-hydroxy-1-[(1S)-1-methylpropyl]butyl}benzenesulfonamide] | 1 (1=non-toxic) | 1.61 |  | 
31 | C=CCCC(O)[C@@H](NS(=O)(=O)c1cccc(Cl)c1)[C@@H](C)CC (stereo partly drawn) [Example 200, 3-chloro-N-{(1S)-2-hydroxy-1-[(1S)-1-methylpropyl]-5-hexenyl}benzenesulfonamide] | 1 (1=non-toxic) | 1.85 |  | 
32 | CC[C@H](C)[C@H](NS(=O)(=O)c1cccc(Cl)c1)C(O)c1ccc(SC)cc1 (stereo partly drawn) [Example 201, 3-chloro-N-((1S,2S)-1-{hydroxy[4-(methylsulfanyl)phenyl]methyl}-2-methylbutyl)benzenesulfonamide] | 1 (1=non-toxic) | 2.45 |  | 
